Results as given in ChEMBL document CHEMBL1128850, “Synthesis and qsar of dequalinium analogues AS K+ channel blockers. investigations on the role of the 4-amino group” (Bioorg Med Chem Lett, 1995).

How the values were obtained:
Type in all cases: functional
[1] = organism: Rattus norvegicus; test: The equi-effective molar ratio of the concentration to that of dequalinium that cause 50% inhibition of the hyperpolarization (AHP)
[2] = organism: Rattus norvegicus; test: Ability to inhibit the hyperpolarization (AHP) in cultured rat sympathetic neurons; conditions: Sympathetic neuron
[3] = organism: Rattus norvegicus; test: Ratio of the negative logarithmic concentration to that of dequalinium that cause 50% inhibition of the hyperpolarization (AHP)

| IC50 [2] [nM] | Structure (SMILES) | EMR [1] | pEMR [3] |
| --- | --- | --- | --- |
| 4500 | CC(=O)Nc1cc[n+](CCCCCCCCCC[n+]2ccc(NC(C)=O)c3ccccc32)c2ccccc12 | 5.5 | -0.74 |
| 2700 | c1ccc(Oc2cc[n+](CCCCCCCCCC[n+]3ccc(Oc4ccccc4)c4ccccc43)c3ccccc23)cc1 | 6.5 | -0.81 |
| 1400 | Nc1cc[n+](CCCCCCCCCC[n+]2ccc(N)c3ccccc32)c2ccccc12 | 1.3 | -0.11 |
| 15000 | Cc1cc[n+](CCCCCCCCCC[n+]2ccc(C)c3ccccc32)c2ccccc12 | 26 | -1.41 |
| – | c1ccc2c(c1)ccc[n+]2CCCCCCCCCC[n+]1cccc2ccccc21 | 15 | -1.18 |
| 1400 | CN(C)c1cc[n+](CCCCCCCCCC[n+]2ccc(N(C)C)c3ccccc32)c2ccccc12 | 1.4 | -0.15 |
| 2400 | c1ccc(Nc2cc[n+](CCCCCCCCCC[n+]3ccc(Nc4ccccc4)c4ccccc43)c3ccccc23)cc1 | 3.4 | -0.53 |
| – | Cc1cc(N)c2ccccc2[n+]1CCCCCCCCCC[n+]1c(C)cc(N)c2ccccc21.[Cl-].[Cl-] [DEQUALINIUM CHLORIDE] | 1 | 0 |
